Reference: patent US6660846B1, “Vesicular amino acid transporter composition and method” (The Regents of the University of CA, priority 1997, dated 2003)
Where two headings read alike, the source gives them in different places.

Columns and labels:
[1] = target: T1, rVGAT (RUNC-47, rat unc-47 homologue) (Rattus norvegicus, UniProt O35458); test: 3H-GABA transport assay in vesicles from PC12 cells stably expressing rVGAT (RUNC-47); assay type: biochemical
T1 construct: expressed in transfected cells
T1 sequence (O35458 1-525): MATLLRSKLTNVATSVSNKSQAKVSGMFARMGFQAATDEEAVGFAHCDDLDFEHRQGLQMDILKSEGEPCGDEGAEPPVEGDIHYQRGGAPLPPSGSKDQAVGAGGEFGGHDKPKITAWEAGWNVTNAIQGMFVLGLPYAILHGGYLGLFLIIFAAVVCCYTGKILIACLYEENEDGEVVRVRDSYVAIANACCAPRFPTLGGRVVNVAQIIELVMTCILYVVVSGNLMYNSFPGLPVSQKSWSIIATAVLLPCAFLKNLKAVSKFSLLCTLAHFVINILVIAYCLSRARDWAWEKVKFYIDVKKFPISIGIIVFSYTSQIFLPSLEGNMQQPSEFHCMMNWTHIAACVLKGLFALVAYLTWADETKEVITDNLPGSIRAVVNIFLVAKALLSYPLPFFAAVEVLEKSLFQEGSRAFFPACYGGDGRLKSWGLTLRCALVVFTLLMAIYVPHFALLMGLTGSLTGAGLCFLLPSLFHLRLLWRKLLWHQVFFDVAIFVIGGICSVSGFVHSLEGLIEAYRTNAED
Procedure: Stable PC12 transformants expressing high levels of the putative transport protein were isolated by screening cell clones with fluorescent-tagged antibodies generated against the rat unc-47 homologue RUNC-47. […] A population of light vesicles was then isolated from two stable transformants and purified by differential centrifugation (Example 7).
Hereafter, the terms RUNC-47 and rVGAT are used interchangeably.
These studies were carried out in the transport assay detailed in Example 8, using synaptic vesicles prepared from transfected PC-12 cells, as described above and detailed in Example 7.
Briefly, vesicles were prepared from PC12 cell clone B1 stably expressing rVGAT and from un-transfected cells.
The rat unc-47 homologue cDNA subcloned into the plasmid expression vector pcDNA3-Amp (InVitrogen; Carlsbad, Calif.) was introduced into PC12 cells by electroporation (Grote, et al., Cell 81, 581-589, 1995). […] The nuclear debris was sedimented at 100 g for 5 minutes and heavier membranes were eliminated by centrifugation at 27,000 g for 1 hour The remaining light membrane vesicles were sedimented at 65,000 g for 1 hour and resuspended in SH containing the same protease inhibitors at a final concentration of approximately 10 μg protein/μl.
Incubation was performed at 29° C. for varying intervals and the reaction was terminated by rapid filtration (Supor 200, Gelman; AnnArbor, Mich.), followed by immediate washing with 6 ml cold 0.15 M KCl. Background uptake was determined by incubation at 4° C. for 0 minutes. The bound radioactivity was measured by scintillation counting in 2.5 ml Cytoscint (ICN). […] Nigericin and valinomycin were dissolved in ethanol and added to final concentrations of 5 μM and 20 μM respectively. Transport measurements were performed in duplicate and repeated three or more times using at least two different membrane preparations.

[2] = target: T2, vesicular monoamine transporter 1 (VMAT1) (Rattus norvegicus, UniProt Q01818); test: Serotonin transport by endogenous VMAT1 in the same PC12 cell membrane preparations; assay type: biochemical
T2 construct: transport of serotonin by endogenous VMAT1; endogenous in cells; host or cells: PC12 cells (clone B1 stably expressing rVGAT), light membrane vesicles
T2 sequence (Q01818 1-521): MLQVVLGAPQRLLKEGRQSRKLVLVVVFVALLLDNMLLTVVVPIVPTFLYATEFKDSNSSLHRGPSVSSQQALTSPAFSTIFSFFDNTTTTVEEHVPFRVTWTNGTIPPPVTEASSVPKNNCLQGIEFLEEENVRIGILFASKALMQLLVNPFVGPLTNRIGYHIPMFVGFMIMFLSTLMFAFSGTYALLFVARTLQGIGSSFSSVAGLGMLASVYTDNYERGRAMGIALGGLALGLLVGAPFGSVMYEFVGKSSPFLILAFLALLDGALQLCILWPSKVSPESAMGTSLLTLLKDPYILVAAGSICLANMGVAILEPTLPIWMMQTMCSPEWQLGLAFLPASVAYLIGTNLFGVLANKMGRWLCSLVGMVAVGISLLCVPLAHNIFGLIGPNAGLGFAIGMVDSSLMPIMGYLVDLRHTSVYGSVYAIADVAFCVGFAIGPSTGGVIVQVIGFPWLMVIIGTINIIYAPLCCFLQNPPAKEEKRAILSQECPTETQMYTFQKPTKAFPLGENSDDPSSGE
Description: Since nigericin inhibits VMAT1 activity on these vesicles to a greater extent (approximately 65%) than it inhibits rVGAT activity, vesicular transport of serotonin has a greater dependence on ΔpH. […] Thus, rVGAT and VMAT1 depend on both components of the electrochemical gradient but VMAT1 depends to a greater extent on ΔpH, consistent with previous results using mixed populations of synaptic vesicles.

[3] = target: RUNC-47 (rVGAT) (Rattus norvegicus, UniProt O35458)
[4] = substrate: NCCCC(=O)O; test: cells, lysate or membranes named; details: other: transfected PC12 cell vesicles; uptake measured at 30 seconds; pH 7.4; 29.0 °C

N[C@@H](CCC(=O)O)C(=O)O [glutamate]
Inhibition of rVGAT activity (3H-GABA transport), in words [1]: does not inhibit rVGAT activity even at extremely high concentrations
IC50 ([1]; read-out: Inhibition of GABA Transport by Structurally Related Compounds, IC50, vesicles from rVGAT-transfected PC12 cells, about 40 μM GABA including radiolabeled GABA): > 100 mM

CC(C)[C@@H]1NC(=O)[C@H](C)OC(=O)[C@@H](C(C)C)NC(=O)[C@@H](C(C)C)OC(=O)[C@H](C(C)C)NC(=O)[C@H](C)OC(=O)[C@@H](C(C)C)NC(=O)[C@@H](C(C)C)OC(=O)[C@H](C(C)C)NC(=O)[C@H](C)OC(=O)[C@@H](C(C)C)NC(=O)[C@@H](C(C)C)OC1=O [valinomycin]
Effect on residual VMAT1 activity of adding valinomycin to nigericin ([2]; valinomycin added to nigericin, same PC12 membranes): eliminates the residual VMAT1 activity
Effect on rVGAT activity of adding valinomycin to nigericin ([1]; valinomycin 20 FM added to nigericin 5 FM, PC12 clone B1 membranes): eliminates rVGAT activity

NCC(=O)O [glycine]
Uptake of 3H-glycine by RUNC-47 PC-12 vesicle preparations [3]: no significant uptake
IC50 [1]: 27.5 mM
Inhibition of rVGAT activity (3H-GABA transport), in words [1]: relatively low potency

C=CC(N)CCC(=O)O (stereo not drawn) [gamma-vinyl-GABA]
IC50 [1]: 7.5 mM
Inhibition of rVGAT activity (3H-GABA transport), in words [1]: as potently as unlabelled GABA

CCCC(=O)O [n-butyric acid]
IC50 [1]: 43.5 mM
Inhibition of rVGAT activity (3H-GABA transport), in words ([1]; vesicles from rVGAT-transfected PC12 cells, about 40 μM GABA): inhibits both rVGAT activity and GABA transport into brain synaptic vesicles

CO[C@@H]1C[C@@H](C[C@H]2CC[C@H](C)[C@H]([C@@H](C)C(=O)O)O2)O[C@]2(O[C@](C)([C@H]3CC[C@@](C)([C@@H]4O[C@@H]([C@H]5O[C@@](O)(CO)[C@H](C)C[C@@H]5C)C[C@@H]4C)O3)C[C@H]2C)[C@@H]1C [nigericin]
Inhibition of serotonin transport by endogenous VMAT1 ([2]; nigericin, membranes from transfected PC12 cells that express VGAT): approximately 65%
Inhibition of GABA transport in rVGAT transfected cells ([1]; nigericin 5 FM, PC12 clone B1 membranes): approximately 40%

NCCCC(=O)O [GABA, gamma-aminobutyric acid]
IC50 [1]: 4.75 mM

B1: rVGAT (RUNC-47, rat unc-47 homologue) (Rattus norvegicus) (protein)
chain: T1 sequence (O35458 1-525)
Km [4]: 5 mM
